Literature values, collected in US8920835B2, “Paliperidone double-layered osmotic pump controlled release tablet and preparation method thereof” (Shanghai Institute of Materia Medica, Chinese Academy of …, priority 2009, dated 2014).

Assays:
[1] = in vivo

Cc1nc2n(c(=O)c1CCN1CCC(c3noc4cc(F)ccc34)CC1)CCCC2O (stereo not drawn) [Paliperidone]
plasma protein binding rate: 74%
apparent volume of distribution [1]: 487 L
half-life of the terminal elimination phase [1]: about 23 h
